The record followed here is patent publication US6649605B2, “Treatment of tension-type headaches with NMDA receptor antagonists” (Head Explorer A/S, priority 1996, dated 2003).

What all share (type): in vivo, human
In data set [1] the test system is patients with chronic tension-type headache. The data set is described as follows: Total Tenderness Score of pericranial myofascial tissues after L-NMMA. Particulars: 6 mg/kg i.v., hydrochloride. The text has this: (§1) Sixteen patients with a diagnosis of chronic tension-type headache according to the criteria of the International Headache Society (Headache Classification Committee 1988) were included (Table XVII). Five of the patients had coexisting infrequent migraine (<four days/year). The patients were recruited from the out-patient headache clinic at Glostrup University Hospital without respect to presence or absence of myofascial tenderness. All patients underwent a general physical and a neurological examination and completed a diagnostic headache diary during a 4-week run-in period (Russell et al. 1992). […]
(§2) The recordings were performed in a standardized manner by the same observer, a trained technician (HA), throughout the study. All parameters were recorded at baseline, 60 and 120 minutes after start of infusion. […] Headache intensity was measured on a 100 mm Visual Analog Scale (VAS) (0-no headache and 100-worst imaginable headache) before, during and after start of infusion.
Total tenderness. […] Tenderness was scored on a 4-point (0-3) scale at each location (local tenderness score) and values from left and right sides were summed to a Total Tenderness Score (TTS) (maximum possible score=48). […]

Data set [2] shares this test system. As to the kind of experiment: Pressure pain detection thresholds (electronic pressure algometer) after L-NMMA.
Text: as §1, §2
Pressure pain thresholds Pressure pain detection thresholds (PPDTs) were measured at the dorsum of the second finger (middle phalanx) and at a fixed point at the anterior part of the temporal muscle as previously described (Bendtsen et al. 1996b). […] Each threshold was calculated as the mean of five consecutive determinations performed with intervals of approximately 30 seconds. […]

The test system is the same in data set [3]. The data set is described as follows: Blood pressure, pulse rate, adverse events and rescue medication after L-NMMA infusion. On the procedure: Randomization (Med.Stat) and drug preparation were performed by staff not involved in the study. The medication was given over 15 minutes into an antecubital vein (Braun Perfusor). The following parameters were measured at baseline and […] post administration: headache intensity on a 100-mm Visual Analog Scale (VAS) (0-no headache and 100-worst imaginable headache) and on a Verbal Rating Scale (VRS) from 0-10 (0-no headache; 5-moderate headache; 10-worst imaginable headache). Blood pressure and pulse rate were measured 5 minutes prior to administration of treatment and at 5, 10, 15, 20, 25, 30, 60, 90 and 120 minutes post administration. Twelve-lead ECG was monitored continuously. Any adverse events were recorded. Patient with unrelieved headache at 120 minutes post treatment were allowed to take rescue medication. All patients were asked to record details of the following on a diary card at 4, 8, 12, 16, 20 and 24 hours post administration, headache intensity on VRS, any medication taken and adverse events. Between 4-7 days after each treatment, the patients returned to the clinic, the diary cards were collected and any adverse events were noted.
Primary endpoint was the reduction of pain intensity over time on active treatment compared to placebo. The secondary endpoints were reduction of pain intensity at 30, 60, 90 and 120 minutes post dosing on VAS and VRS compared to pre-treatment pain score within each treatment. Comparison of pain intensity on VAS, blood pressure and pulse rate over time between treatments were performed With ANOVA. Paired-Samples T Test was used to compare pre-treatment pain score on VAS with pain score at 30, 60, 90, 120 minutes post dosing within each treatment. The sum of differences between the pre-treatment VRS score and the VRS score at 30, 60, 90, 120 minutes post dosing was calculated in order to obtained a summary measure of pain score for each treatment (Matthews et al. 1990). These sums of differences for each treatment were compared by Wilcoxon Signed Rank test. Five percent was accepted as level of significance.

Values joined by “and” are separate entries in the source; they are usually repeats but may differ in a detail not shown here. Equal entries are not always repeated. “Also recorded” adds a separate entry of the source.

Consider `CN=C(N)NCCC[C@H](N)C(=O)O.Cl` [L-NMMA, L-N^G methyl arginine hydrochloride], for which, in data set [1] (p=0.007 and p=0.008), the “TTS compared with baseline” value was “significantly reduced at 60 and 120 minutes; also recorded: significantly), reduced at 60 and 120 minutes”. The “Tenderness score (summary) compared with placebo” value in data set [1] (p=0.11) is “tended to be reduced; also recorded: tended to be reduced more; also recorded: not significant”. The “PPDTs compared with pre-treatment values” in data set [2] (finger and temporal region, hydrochloride) was “no changes in PPDTs at 60 and 120 minutes; also recorded: largely unchanged”. Besides, the “PPDTs compared with placebo” value in data set [2] (finger p=0.78, temporal region p=0.77) is given as “no significant difference”. For the same molecule, in data set [3] (6 mg/kg i.v.), the “Subjective symptoms reported (number of patients)” value was “tiredness (2), dryness of the mouth (3), drowsiness (1), exhaustion (1), nausea (1) and a feeling of tingling in arm (1)”. Further, the “MAP and pulse rate over time compared with placebo” value in data set [3] (6 mg/kg i.v., p=0.0001 and p=0.0001) is given as “changed significantly over time”. The “Time at which the difference in MAP and pulse rate to placebo disappeared” value in data set [3] (after start of infusion) was 60 min. Further, in data set [3] (occurred 10 minutes post dosing, 6 mg/kg i.v., hydrochloride, 6 mg/kg), the “Maximum decrease in pulse rate” value was 16±2% and 16%. Also, the “Maximum increase in mean arterial blood pressure (MAP)” value in data set [3] (occurred 15 minutes post dosing, 6 mg/kg i.v., hydrochloride, 6 mg/kg) was 12±2% and 12%. Also, the “Patients who reported subjective symptoms in relation to the infusion” value in data set [3] (of 16 patients, 6 mg/kg i.v.) is reported as “Seven”. Moreover, the “Patients who used simple analgesics as rescue medication” value in data set [3] (of 16 patients, 7 on placebo) is reported as “Three”.
